From US4543353A, “Ester and amide derivatives of 13,14-didehydro prostaglandins” (Farmitalia Carlo Erba S.p.A., priority 1981, dated 1985)

Experiments:
[1] = duration of activity when administered orally; assay type: in vivo
hamster = experiment: luteolytic activity in the hamster after subcutaneous injection; assay type: in vivo; conditions: Mesocricetus auratus, sc, according to A. B. Labhsetwar, Nature, vol. 230, page 528 (1971)
Protocol: In this application, the compounds are administered either by intravenous infusion at a dose of approximately 0.01-0.05 μg/kg/minute until the end of labor, or by mouth at a single or multiple doses from about 0.05 mg to about 5 mg pro dose. […] For example, the luteolytic activity of the compound 5c-9α,11α,15(S)-trihydroxy-18,19,20-trinor-17-cyclohexyl-prost-5-en-13-ynoic acid 2-ethoxy-ethyl ester, expressed as ED50 value and evaluated in the hamster after subcutaneous injection [according to A. B. LABHSETWAR, Nature, vol.

[2] = orientative acute toxicity, LD50, single oral administration; conditions: mouse, in vivo, mice, nine hours food deprived, assessed on the seventh day
Protocol: The evaluation of the toxicity (as orientative acute toxicity, i.e. LD50) was carried out, e.g., as follows: nine hours food deprived mice were treated orally with single administration of increasing doses, then housed and normally fed; the LD50 was assessed on the seventh day after the treatment.

| Structure (SMILES) | activity duration compared with the parent acid or alkyl ester derivatives [1] | ED50 (hamster) [mg/kg] | LD50 at 168 h [2] [mg/kg] |
| --- | --- | --- | --- |
| CCOCCOC(=O)CCC/C=C\C[C@@H]1[C@@H](C#C[C@@H](O)CC2CCCCC2)[C@H](O)C[C@@H]1O [5c-9α,11α,15(S)-trihydroxy-17,18,19,20-tetranor-16-cyclohexyl-prost-5-en-13-ynoic acid 2-ethoxy-ethyl ester] | more lasting activity |  |  |
| CCOCCOC(=O)CCC/C=C\C[C@@H]1[C@@H](C#C[C@@H](O)CCC2CCCCC2)[C@H](O)C[C@@H]1O [5c-9α,11α,15(S)-trihydroxy-18,19,20-trinor-17-cyclohexyl-prost-5-en-13-ynoic acid 2-ethoxy-ethyl ester] |  | 0.005 |  |
| COC(=O)CCC/C=C\C[C@@H]1[C@@H](C#C[C@@H](O)CCC2CCCCC2)[C@H](O)C[C@@H]1O [5c-9α,11α,15(S)-trihydroxy-18,19,20-trinor-17-cyclohexyl-prost-5-en-13-ynoic acid methyl ester, reference compound] |  | 0.009 |  |
| CCOCCOC(=O)CCC/C=C\C[C@@H]1[C@@H](C#C[C@@H](O)CCCCC2CCCCC2)[C@H](O)C[C@@H]1O [5c-9α,11α,15(S)-trihydroxy-20-nor-19-cyclohexyl-prost-5-en-13-ynoic acid 2-ethoxy-ethyl ester] | more lasting activity |  | > 3000 |
